Reference: PubChem BioAssay AID256 (DTP/NCI, 2004)
Where “and” joins values, the source holds several entries; their conditions need not be identical. Equal entries are not always repeated. Toxic doses and inconclusive results are not listed. The calls were made as follows: active = survival T/C of 150% or more; inactive = T/C below 125% in these data.

Test system: CD2F1 mice, L1210 leukemia ip, survival T/C
Assay: NCI In Vivo Anticancer Drug Screen. Data for tumor model L1210 Leukemia (intraperitoneal) in CD2F1 (CDF1) mice
Details: higher = longer survival
Procedure, shortened: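 Tumor-bearing mice (transplanted tumor) were split into treated and vehicle control groups, and the measured endpoint of each treated group was divided by that of its vehicle controls.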

[1] = endpoint: mean survival time, dose: 100.0 mg/kg/injection, schedule: Q04DX002 (ip), vehicle: saline with Tween-80
[2] = endpoint: mean survival time, dose: 200.0 mg/kg/injection, schedule: Q04DX002 (ip), vehicle: saline with Tween-80
[3] = endpoint: mean survival time, dose: 400.0 mg/kg/injection, schedule: Q04DX002 (ip), vehicle: saline with Tween-80
[4] = endpoint: mean survival time, dose: 100.0 mg/kg/injection, schedule: Q01DX009 (ip), vehicle: saline with Tween-80
[5] = endpoint: mean survival time, dose: 100.0 mg/kg/injection, schedule: Q04DX003 (ip), vehicle: saline with Tween-80
[6] = endpoint: mean survival time, dose: 200.0 mg/kg/injection, schedule: Q01DX009 (ip), vehicle: saline with Tween-80
[7] = endpoint: mean survival time, dose: 200.0 mg/kg/injection, schedule: Q04DX003 (ip), vehicle: saline with Tween-80
[8] = endpoint: mean survival time, dose: 400.0 mg/kg/injection, schedule: Q01DX009 (ip), vehicle: saline with Tween-80
[9] = endpoint: mean survival time, dose: 400.0 mg/kg/injection, schedule: Q04DX003 (ip), vehicle: saline with Tween-80
[10] = endpoint: mean survival time, dose: 100.0 mg/kg/injection, schedule: Q01DX009 (ip), vehicle: saline
[11] = endpoint: mean survival time, dose: 200.0 mg/kg/injection, schedule: Q01DX009 (ip), vehicle: saline
[12] = endpoint: mean survival time, dose: 12.5 mg/kg/injection, schedule: Q01DX009 (ip), vehicle: saline with Tween-80
[13] = endpoint: mean survival time, dose: 25.0 mg/kg/injection, schedule: Q01DX009 (ip), vehicle: saline with Tween-80
[14] = endpoint: mean survival time, dose: 50.0 mg/kg/injection, schedule: Q01DX009 (ip), vehicle: saline with Tween-80

Measured: T/C

COC1OCC(C(C)=O)C(O)C1O (stereo not drawn)
inactive: endpoint: mean survival time, dose: 100.0 mg/kg/injection, schedule: Q01DX001 (ip), vehicle: saline 101 % of control | endpoint: mean survival time, dose: 200.0 mg/kg/injection, schedule: Q01DX001 (ip), vehicle: saline 96 % of control | endpoint: mean survival time, dose: 400.0 mg/kg/injection, schedule: Q01DX001 (ip), vehicle: saline 95 % of control

COc1cc(CCCCl)cc(OC)c1OC
inactive: [1] 100 % of control | [2] 100 % of control | [3] 103 % of control

O=C(CSCC(=O)c1ccccc1)c1ccccc1
inactive: endpoint: mean survival time, dose: 400.0 mg/kg/injection, schedule: Q04DX002 (ip), vehicle: Klucel (hydroxypropylcellulose) (HPC) 89 % of control

N#CCCN=C1C=CC(=C(c2ccccc2)c2ccc(NCCC#N)cc2)C=C1
inactive: [1] 103 % of control | [2] 103 % of control | [3] 107 % of control

CCCNC(=O)Oc1ccc(C(=O)OCC)cc1
inactive: endpoint: mean survival time, dose: 100.0 mg/kg/injection, schedule: Q04DX003 (ip), vehicle: saline 97 % of control | endpoint: mean survival time, dose: 200.0 mg/kg/injection, schedule: Q04DX003 (ip), vehicle: saline 101 % of control | endpoint: mean survival time, dose: 400.0 mg/kg/injection, schedule: Q04DX003 (ip), vehicle: saline 106 % of control

C=CCCCCCCCCC(=O)NCC(C)C
inactive: [4] 104 % of control | [5] 91 % of control | [6] 104 % of control | [7] 102 % of control | [8] 98 % of control | [9] 100 % of control

CCCCC(CC)C(=O)[O][Pb]([CH3])([CH3])[CH3] (stereo not drawn)
inactive: endpoint: mean survival time, dose: 5.0 mg/kg/injection, schedule: Q04DX003 (ip), vehicle: saline with Tween-80 97 % of control | endpoint: mean survival time, dose: 10.0 mg/kg/injection, schedule: Q04DX003 (ip), vehicle: saline with Tween-80 98 % of control

CC(=O)CC(OC(C)=O)(C(F)(F)F)C(F)(F)F
inactive: endpoint: mean survival time, dose: 25.0 mg/kg/injection, schedule: Q04DX002 (ip), vehicle: saline 98 % of control | endpoint: mean survival time, dose: 50.0 mg/kg/injection, schedule: Q04DX002 (ip), vehicle: saline 102 % of control | endpoint: mean survival time, dose: 100.0 mg/kg/injection, schedule: Q04DX003 (ip), vehicle: Klucel (hydroxypropylcellulose) (HPC) 90 % of control

CCCCn1c(C)nc2c([N+](=O)[O-])cc(C(F)(F)F)cc21
inactive: endpoint: mean survival time, dose: 50.0 mg/kg/injection, schedule: Q01DX001 (ip), vehicle: saline with Tween-80 95 % of control | endpoint: mean survival time, dose: 100.0 mg/kg/injection, schedule: Q01DX001 (ip), vehicle: saline with Tween-80 98 % of control | endpoint: mean survival time, dose: 200.0 mg/kg/injection, schedule: Q01DX001 (ip), vehicle: saline with Tween-80 95 % of control

C=CCOP(=O)(OCC=C)C1(Cl)C(Cl)=C(Cl)C(=O)C(Cl)=C1Cl
inactive: endpoint: mean survival time, dose: 25.0 mg/kg/injection, schedule: Q01DX009 (ip), vehicle: saline + alcohol 96 % of control | endpoint: mean survival time, dose: 50.0 mg/kg/injection, schedule: Q01DX009 (ip), vehicle: saline + alcohol 96 % of control | endpoint: mean survival time, dose: 100.0 mg/kg/injection, schedule: Q01DX009 (ip), vehicle: saline + alcohol 96 % of control | [4] 100 % of control

CCCC(O)C(C)[N+](=O)[O-] (stereo not drawn)
inactive: [10] 96 % of control | [11] 106 % of control | endpoint: mean survival time, dose: 400.0 mg/kg/injection, schedule: Q01DX009 (ip), vehicle: saline 96 % of control

O=c1ccc2cc(Cl)cc([N+](=O)[O-])c2o1
inactive: endpoint: mean survival time, dose: 100.0 mg/kg/injection, schedule: Q01DX001 (ip), vehicle: Klucel (hydroxypropylcellulose) (HPC) 102 % of control | endpoint: mean survival time, dose: 200.0 mg/kg/injection, schedule: Q01DX001 (ip), vehicle: Klucel (hydroxypropylcellulose) (HPC) 99 % of control | endpoint: mean survival time, dose: 400.0 mg/kg/injection, schedule: Q01DX001 (ip), vehicle: Klucel (hydroxypropylcellulose) (HPC) 99 % of control

COc1cc(OC)c(NC(=O)NCc2ccco2)cc1Cl
inactive: [12] 103 % of control | [13] 95 % of control | [14] 88 % of control and 98 % of control | [6] 92 % of control

NC(=S)N/N=C/c1ccc(Br)cn1
inactive: endpoint: mean survival time, dose: 12.5 mg/kg/injection, schedule: Q04DX002 (ip), vehicle: saline with Tween-80 110 % of control | endpoint: mean survival time, dose: 25.0 mg/kg/injection, schedule: Q04DX002 (ip), vehicle: saline with Tween-80 110 % of control

CCOC(=O)C(C#N)(CCC#N)CCC#N
inactive: [4] 94 % of control | [5] 100 % of control | [6] 98 % of control | [7] 102 % of control | [8] 94 % of control | [9] 100 % of control

CCCCCCCCCCCCCCCC(=O)N(CCCN)C(C)(C)CCC(C)(C)N(CCCN)C(=O)CCCCCCCCCCCCCCC
inactive: endpoint: mean survival time, dose: 1.56 mg/kg/injection, schedule: Q01DX009 (ip), vehicle: water 106 % of control | endpoint: mean survival time, dose: 3.13 mg/kg/injection, schedule: Q01DX009 (ip), vehicle: water 98 % of control | endpoint: mean survival time, dose: 6.25 mg/kg/injection, schedule: Q01DX009 (ip), vehicle: water 104 % of control | endpoint: mean survival time, dose: 12.5 mg/kg/injection, schedule: Q01DX009 (ip), vehicle: water 102 % of control | endpoint: mean survival time, dose: 25.0 mg/kg/injection, schedule: Q01DX009 (ip), vehicle: water 89 % of control and 95 % of control

CSc1ncnc2c1c(C#N)cn2C1OC(CO)C(O)C1O (stereo not drawn)
inactive: endpoint: mean survival time, dose: 32.0 mg/kg/injection, schedule: Q01DX009 (ip), vehicle: saline 124 % of control | endpoint: mean survival time, dose: 53.0 mg/kg/injection, schedule: Q01DX009 (ip), vehicle: saline 87 % of control

O=[N+]([O-])c1ccc(Cl)c2c([N+](=O)[O-])cccc12
inactive: [14] 100 % of control | [4] 93 % of control | [6] 96 % of control

CC[C@H](CC[C@@H](C)C1CC[C@H]2[C@@H]3CC=C4C[C@@H](OP(=O)(N5CC5)N5CC5)CC[C@]4(C)[C@H]3CC[C@]12C)C(C)C (stereo partly drawn)
inactive: [12] 97 % of control | [13] 92 % of control | [14] 93 % of control | [4] 92 % of control | [6] 108 % of control | [8] 97 % of control

c1ccc(-c2ccccc2NC2=NCCO2)cc1
inactive: endpoint: mean survival time, dose: 12.5 mg/kg/injection, schedule: Q04DX003 (ip), vehicle: saline 94 % of control | endpoint: mean survival time, dose: 25.0 mg/kg/injection, schedule: Q04DX003 (ip), vehicle: saline 94 % of control | endpoint: mean survival time, dose: 50.0 mg/kg/injection, schedule: Q04DX003 (ip), vehicle: saline 90 % of control

O=C(O)C1=CCCc2ccc(F)cc21
inactive: endpoint: median survival time, dose: 50.0 mg/kg/injection, schedule: Q04DX002 (ip), vehicle: saline with Tween-80 100 % of control | endpoint: median survival time, dose: 100.0 mg/kg/injection, schedule: Q04DX002 (ip), vehicle: saline with Tween-80 100 % of control | endpoint: median survival time, dose: 200.0 mg/kg/injection, schedule: Q04DX002 (ip), vehicle: saline with Tween-80 88 % of control | endpoint: median survival time, dose: 400.0 mg/kg/injection, schedule: Q04DX002 (ip), vehicle: saline with Tween-80 111 % of control

O=c1ccn(C2OC(CO)C(O)C2O)c(=O)[n]1[Hg][c]1ccccc1 (stereo not drawn)
inactive: endpoint: median survival time, dose: 0.79 mg/kg/injection, schedule: Q01DX005 (ip), vehicle: saline 116 % of control and 111 % of control | endpoint: median survival time, dose: 1.56 mg/kg/injection, schedule: Q01DX005 (ip), vehicle: saline 100 % of control | endpoint: median survival time, dose: 3.12 mg/kg/injection, schedule: Q01DX005 (ip), vehicle: saline 100 % of control and 101 % of control and 103 % of control | endpoint: median survival time, dose: 6.25 mg/kg/injection, schedule: Q01DX005 (ip), vehicle: saline 100 % of control and 101 % of control and 107 % of control | endpoint: median survival time, dose: 12.5 mg/kg/injection, schedule: Q01DX005 (ip), vehicle: saline 101 % of control

CCCC(C)(C)c1ccc(Cl)cc1
inactive: [14] 96 % of control | [4] 104 % of control | [6] 104 % of control

O=C(O)C1C=CCC(C(=O)O)C1 (stereo not drawn)
inactive: endpoint: mean survival time, dose: 50.0 mg/kg/injection, schedule: Q01DX009 (ip), vehicle: saline 101 % of control | [10] 97 % of control | [11] 101 % of control
